This note sets out measurements from ChEMBL document CHEMBL1782050, “Discovery of new nanomolar peroxisome proliferator-activated receptor γ activators via elaborate ligand-based modeling” (Eur J Med Chem, 2011).

SMILES strings stand for the structures.

This experiment addresses T1, Peroxisome proliferator-activated receptor gamma (Homo sapiens, UniProt P37231).
T1 sequence (P37231 whole entry): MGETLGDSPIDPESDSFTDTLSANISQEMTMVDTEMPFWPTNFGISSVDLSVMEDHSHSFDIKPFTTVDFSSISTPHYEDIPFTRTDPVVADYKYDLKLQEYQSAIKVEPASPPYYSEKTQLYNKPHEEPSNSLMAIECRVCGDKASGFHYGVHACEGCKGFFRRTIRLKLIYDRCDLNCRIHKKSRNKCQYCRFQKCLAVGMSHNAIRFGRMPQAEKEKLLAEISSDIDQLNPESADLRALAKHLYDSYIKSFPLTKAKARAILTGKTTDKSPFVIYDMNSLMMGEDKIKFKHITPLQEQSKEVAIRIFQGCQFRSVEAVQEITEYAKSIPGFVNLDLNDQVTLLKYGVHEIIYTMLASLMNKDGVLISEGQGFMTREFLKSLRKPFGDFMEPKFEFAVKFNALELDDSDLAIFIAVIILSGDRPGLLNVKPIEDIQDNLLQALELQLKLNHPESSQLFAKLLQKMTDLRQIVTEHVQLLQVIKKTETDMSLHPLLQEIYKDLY
It counts as functional, cell-based, HepG2.
Description: Agonist activity at PPARgamma receptor expressed in human HepG2 cells by PPRE-luciferase reporter gene assay
Turning to `Cc1ccc(S(=O)(=O)Oc2ccc(N(CC(=O)O)S(=O)(=O)c3ccc(C)cc3)cc2)cc1`, the EC50 stood at 15.3 nM.
In the case of `COC1=C(OC)Cc2c(cc[n+]3c(CCC(=O)O)c4cc(OC)c(OC)cc4cc23)C1` it was 220000 nM; in that of `COc1ccc(-c2nc(SCC(=O)O)n(-c3ccccn3)c2-c2ccc(OC)cc2)cc1`, 224 nM.
